Patent publication US20080262041A1, “Beta-Lactams for Treatment of Cns Disorders” (priority 2003, published 2008)
Where two headings read alike, the source gives them in different places.

Legend:
[1] = target: T1, recombinant human NK1 receptors (Homo sapiens, UniProt P25103); assay: NK1 receptor binding affinity, scintillation proximity assay (SPA), displacement of [125I]Tyr8-Substance P; details: average of at least two determinations, CHO cell membranes, read-out: pKi (negative logarithm of the inhibition constant), NK1 receptor SPA binding (converted)
T1 construct: expressed in transfected cells; host or cells: CHO cells (membranes)
Excerpt: NK1-receptor binding affinity has been determined in vitro in a binding Scintillation proximity assay (SPA) by measuring the compounds' ability to displace [^125I]Tyr8-Substance P (SP) from recombinant human NK1 receptors stably expressed in Chinese Hamster Ovary (CHO) cell membranes prepared by using a modification of the method described by Beattie D. T. et al. (Br. J. Pharmacol, 116:3149-3157, 1995). Briefly, polystyrene Leadseeker WGA-SPA beads (Amersham Biosciences) were mixed with cell membranes in a bead/membrane ratio of 50:1 (w/w) in assay buffer (75 mM Tris pH 7.8, 75 mM NaCl, 4 mM MnCl2, 1 mM EDTA, 0.05% Chaps, 1 mM PMSF). The mixture was placed on ice for 30 minutes to allow the formation of membrane/bead complex before BSA was added to a final concentration of 1%. After another 30 minutes incubation on ice, the bead/membrane complex was washed twice and suspended in assay buffer. [^125I]Tyr8-Substance P (2200 Ci/mmol, PerkinElmer) was then added to the bead/membrane complex with a final concentration of 0.4 nM. 30 ul of the resulting mixture was then dispensed to each well of Nalgen NUNC 384-well plate with 1 ul compound pre-dispensed in DMSO. The plates were then sealed and pulse centrifuged at 1100 rpm. After 3 hours incubation at room temperature with shaking, the plates were centrifuged for 2 min at 1100 rpm and measured in Viewlux imager (PerkinElmer) for 5 minutes with a 618-nm filter. Inhibition of [^125I]Tyr8-Substance P binding to NK1-receptors was measured by the reduction of luminescent signal. IC50 values of each compound were determined by an 11-point 3×-dilution inhibition curve. pKi values were calculated using the KD of [^125I]Tyr8-Substance P determined in a separate experiment.
The affinity of the compound of the invention for the NK1 receptor was determined using the NK1 receptor binding affinity method (Scintillation proximity assay (SPA)) measured in vitro by the compounds' ability to displace [^125I]Tyr8-Substance P (SP) from recombinant human NK1 receptors expressed in Chinese Hamster Ovary (CHO) cell membranes. The affinity values are expressed as negative logarithm of the inhibition constant (pKi) of displacer ligands.

[2] = target: T2, recombinant human serotonin transporter (Homo sapiens, UniProt P31645); assay: hSERT binding affinity, displacement of [3H]-citalopram
T2 construct: expressed in transfected cells; host or cells: porcine LLCPK cells stably transfected with hSERT (membranes)
Description: SERT binding affinity has been determined in vitro by the compounds' ability to displace [^3H]-citalopram from hSERT-LLCPK cell membranes. For the binding reaction, a final concentration of 0.25 nM of [^3H] citalopram (84 Ci/mmol, Amersham) was incubated with 3-5 μg/ml of cell membrane and the compound to be tested at different concentrations (7 concentration points in duplicate) in 50 mM Tris HCl, pH 7.7, containing 120 mM NaCl, 5 mM KCl, 10 μM pargyline and 0.1% ascorbic acid. The reaction was performed for 120 min at 22° C. and was terminated through GF/B Unifilter (pre-soaked in 0.5% PEI) using a Cell Harvester (Tomtec). Scintillation fluid was added to each filtered spot and radioactivity was determined using a scintillation counter (TopCount (Packard)). Non-specific binding was determined using paroxetine (10 μM) and represents about 2-5% of the total binding. Competition experiments were conducted with duplicate determination for each point. Msat601 software package was used to elaborate the competition binding data. IC50 values were converted to Ki values using the Cheng-Prusoff equation and by using the KD of [^3H]citalopram determined in separate experiments.
The affinity of the compounds of the invention for the serotonin transporter was determined using the hSERT binding affinity method and measuring in vitro the compounds' ability to displace [^3H]-citalopram from recombinant human serotonin transporter expressed in Porcine Epithelial Kidney LLCPK cell membranes. The affinity values are expressed as negative logarithm of the inhibition constant of displacer ligands (pKi).

[3] = average of at least two determinations, [3H]-citalopram, LLCPK cell membranes, read-out: pKi, serotonin transporter binding (converted)

T2 sequence (P31645 whole entry): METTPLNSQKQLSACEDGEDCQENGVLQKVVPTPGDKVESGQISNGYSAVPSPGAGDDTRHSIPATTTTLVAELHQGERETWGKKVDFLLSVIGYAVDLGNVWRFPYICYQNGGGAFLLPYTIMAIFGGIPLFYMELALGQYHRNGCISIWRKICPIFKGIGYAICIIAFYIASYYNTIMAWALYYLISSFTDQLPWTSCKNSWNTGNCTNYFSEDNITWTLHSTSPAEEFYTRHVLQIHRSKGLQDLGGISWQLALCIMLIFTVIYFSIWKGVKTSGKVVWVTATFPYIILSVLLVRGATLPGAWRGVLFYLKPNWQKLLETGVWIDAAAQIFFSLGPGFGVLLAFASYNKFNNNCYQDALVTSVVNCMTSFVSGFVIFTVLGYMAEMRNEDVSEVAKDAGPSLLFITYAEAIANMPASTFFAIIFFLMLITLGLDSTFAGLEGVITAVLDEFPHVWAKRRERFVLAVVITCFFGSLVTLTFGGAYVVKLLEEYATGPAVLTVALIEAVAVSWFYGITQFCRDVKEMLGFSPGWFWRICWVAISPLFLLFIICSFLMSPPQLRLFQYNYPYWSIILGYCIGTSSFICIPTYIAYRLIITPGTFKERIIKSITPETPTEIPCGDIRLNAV
T1 sequence (P25103 whole entry): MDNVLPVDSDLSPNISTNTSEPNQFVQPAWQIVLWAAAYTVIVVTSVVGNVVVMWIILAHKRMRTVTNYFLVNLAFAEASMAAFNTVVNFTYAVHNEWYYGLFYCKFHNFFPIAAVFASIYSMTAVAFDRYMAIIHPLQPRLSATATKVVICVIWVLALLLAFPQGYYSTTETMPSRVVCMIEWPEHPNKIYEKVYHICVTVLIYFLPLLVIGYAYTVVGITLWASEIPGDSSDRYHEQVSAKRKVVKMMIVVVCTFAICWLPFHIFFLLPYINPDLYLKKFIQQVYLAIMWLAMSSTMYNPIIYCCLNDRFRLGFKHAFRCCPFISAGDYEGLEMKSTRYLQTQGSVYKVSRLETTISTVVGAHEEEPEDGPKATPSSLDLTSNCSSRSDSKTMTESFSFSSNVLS

Structure (SMILES)	Ki [1] [nM]	Ki [2, 3] [nM]	Ki [2] [nM]
C[C@@H](c1cc(Cl)cc2ccccc12)N1CC=C(C2(c3ccc(F)cc3)CCNCC2)C1=O [Example 6, 1-[(1S)-1-(3-Chloro-1-naphthalenyl)ethyl]-3-[4-(4-fluorophenyl)-4-piperidinyl]-1,5-dihydro-2H-pyrrol-2-one]	2.24 to 8.51	1.26 to 9.12	–
CC(c1cc(Cl)cc(Cl)c1)N1CC=C(C2(c3ccc(F)cc3)CCNCC2)C1=O (single isomer, unassigned) [Example 5, 1-[1-(3,5-Dichlorophenyl)ethyl]-3-[4-(4-fluorophenyl)-4-piperidinyl]-1,5-dihydro-2H-pyrrol-2-one]	2.24 to 8.51	1.26 to 9.12	–
CN1CCC(C2=CCN(Cc3cc(C#N)cc4ccccc34)C2=O)(c2ccc(F)cc2)CC1 [Example 16, 4-({3-[4-(4-Fluorophenyl)-1-methyl-4-piperidinyl]-2-oxo-2,5-dihydro-1H-pyrrol-1-yl}methyl)-2-naphthalenecarbonitrile]	2.24 to 8.51	–	1.26 to 9.12
CC(c1cc(Cl)cc(Cl)c1)N1CC=C(C2(c3ccc(F)cc3)CCN(C)CC2)C1=O (single isomer, unassigned) [Example 11, 1-[1-(3,5-Dichlorophenyl)ethyl]-3-[4-(4-fluorophenyl)-1-methyl-4-piperidinyl]-1,5-dihydro-2H-pyrrol-2-one]	2.24 to 8.51	–	1.26 to 9.12
CN1CCC(C2=CCN(Cc3cc(Cl)cc(Cl)c3)C2=O)(c2ccc(F)cc2)CC1 [Example 3, 1-[(3,5-Dichlorophenyl)methyl]-3-[4-(4-fluorophenyl)-1-methyl-4-piperidinyl]-1,5-dihydro-2H-pyrrol-2-one]	2.24 to 8.51	–	1.26 to 9.12
C[C@H](c1cc(Cl)cc2ccccc12)N1CC=C(C2(c3ccc(F)cc3)CCN(C)CC2)C1=O [Example 15, 1-[(1R)-1-(3-Chloro-1-naphthalenyl)ethyl]-3-[4-(4-fluorophenyl)-1-methyl-4-piperidinyl]-1,5-dihydro-2H-pyrrol-2-one]	2.24 to 8.51	–	1.26 to 9.12
O=C1C(C2(c3ccc(F)cc3)CCNCC2)=CCN1Cc1cc(Cl)cc(Cl)c1 [Example 1, 1-[(3,5-Dichlorophenyl)methyl]-3-[4-(4-fluorophenyl)-4-piperidinyl]-1,5-dihydro-2H-Pyrrol-2-one]	2.24 to 8.51	1.26 to 9.12	–
